# From PubChem BioAssay (NCI)
#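 How tested: cells in 96-well plates exposed to compound for 48 hours at five concentrations. GI50 marks 50% less growth. The concentration for full growth arrest is given as TGI.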
# Experiments:
# Experiment in all cases: NCI tumour cell line growth inhibition, 48 h
# [1] = test system: A549 NSCLC
# [2] = test system: SK-MEL-28 melanoma
# [3] = test system: SF-539 CNS
# [4] = test system: UACC-62 melanoma
# [5] = test system: NCI-H522 lung
# [6] = test system: NCI/ADR-RES ovarian
# [7] = test system: SN12C renal
# [8] = test system: UO-31 renal
# [9] = test system: HCT-15 colon
# [10] = test system: HT29 colon
# [11] = test system: NCI-H226 lung
# [12] = test system: HCT-116 colon
# [13] = test system: 786-0 renal
# [14] = test system: SW-620 colon
# [15] = test system: MDA-MB-231 breast
# [16] = test system: CCRF-CEM leukemia
# [17] = test system: MCF7 breast
# [18] = test system: OVCAR-5 ovarian
# [19] = test system: RXF 393 renal
# [20] = test system: MDA-MB-435
# [21] = test system: SNB-75 CNS
# [22] = test system: IGROV1 ovarian
# [23] = test system: K-562 leukemia
# [24] = test system: KM12 colon
# [25] = test system: BT-549 breast
# [26] = test system: UACC-257 melanoma
# [27] = test system: HOP-62 NSCLC
# [28] = test system: OVCAR-8 ovarian
# [29] = test system: M14 melanoma
# [30] = test system: HCC-2998 colon
# [31] = test system: PC-3 prostate
# [32] = test system: U251 CNS
# [33] = test system: SK-MEL-2 melanoma
# [34] = test system: SF-295 CNS
# [35] = test system: DU-145 prostate
# [36] = test system: HOP-92 NSCLC
# [37] = test system: NCI-H23 lung
# [38] = test system: MALME-3M melanoma
# [39] = test system: SK-MEL-5 melanoma
# [40] = test system: OVCAR-4 ovarian
# [41] = test system: EKVX NSCLC
# [42] = test system: SNB-19 CNS
# [43] = test system: SF-268 CNS
# [44] = test system: HS 578T breast
# [45] = test system: ACHN renal
# [46] = test system: CAKI-1 renal
# [47] = test system: TK-10 renal
# [48] = test system: SR leukemia
# [49] = test system: A498 renal
# [50] = test system: MOLT-4 leukemia
# [51] = test system: NCI-H460 lung
# [52] = test system: HL-60(TB) leukemia
# [53] = test system: COLO 205 colon
# [54] = test system: RPMI-8226 leukemia
# [55] = test system: T-47D breast
# [56] = test system: SK-OV-3 ovarian
# [57] = test system: LOX IMVI melanoma
# [58] = test system: OVCAR-3 ovarian
smiles,measurement,setting,value
COc1ccc2c3c(Nc4ccc(/C(C)=N/O)cc4)[nH]c4ccccc4c-3c(N=O)c2c1,GI50,[1],1450 nM
same,TGI,[1],6.08 µM
same,GI50,[2],27 µM
same,TGI,[2],50.6 µM
same,GI50,[3],17.3 µM
same,TGI,[3],34.6 µM
same,GI50,[4],7.91 µM
same,TGI,[4],23.7 µM
same,GI50,[5],18.9 µM
same,TGI,[5],41.9 µM
same,GI50,[6],5.78 µM
same,TGI,[6],20.2 µM
same,GI50,[7],7.06 µM
same,TGI,[7],23 µM
same,GI50,[8],18.5 µM
same,TGI,[8],35.5 µM
same,GI50,[9],1810 nM
same,TGI,[9],4.56 µM
same,GI50,[10],19.6 µM
same,TGI,[10],33.7 µM
same,GI50,[11],17 µM
same,TGI,[11],38.3 µM
same,GI50,[12],1470 nM
same,TGI,[12],2.89 µM
same,GI50,[13],13.4 µM
same,TGI,[13],28.2 µM
same,GI50,[14],1360 nM
same,TGI,[14],2.85 µM
same,GI50,[15],4.8 µM
same,TGI,[15],24.3 µM
same,GI50,[16],1090 nM
same,TGI,[16],2.92 µM
same,GI50,[17],843 nM
same,TGI,[17],> 100 µM
same,GI50,[18],3.02 µM
same,TGI,[18],12.2 µM
same,TGI,[19],0.0372 µM
same,GI50,[20],2.77 µM
same,TGI,[20],11.9 µM
same,GI50,[21],44.9 µM
same,TGI,[21],75.3 µM
same,GI50,[22],15 µM
same,TGI,[22],29.2 µM
same,GI50,[23],665 nM
same,TGI,[23],2.8 µM
same,GI50,[24],1130 nM
same,TGI,[24],4.39 µM
same,GI50,[25],3.98 µM
same,TGI,[25],23.1 µM
same,GI50,[26],3.08 µM
same,TGI,[26],8.56 µM
same,GI50,[27],11.6 µM
same,TGI,[27],30.9 µM
same,GI50,[28],3.55 µM
same,TGI,[28],20.2 µM
same,GI50,[29],2.44 µM
same,TGI,[29],5.64 µM
same,GI50,[30],1780 nM
same,TGI,[30],3.27 µM
same,GI50,[31],1.52 µM
same,TGI,[31],3.2 µM
same,GI50,[32],2310 nM
same,TGI,[32],12.9 µM
same,GI50,[33],18.4 µM
same,TGI,[33],40.6 µM
same,GI50,[34],9.11 µM
same,TGI,[34],38.9 µM
same,GI50,[35],2.04 µM
same,TGI,[35],4.79 µM
same,GI50,[36],13.1 µM
same,TGI,[36],36 µM
same,GI50,[37],4.59 µM
same,TGI,[37],18.2 µM
same,GI50,[38],6.31 µM
same,TGI,[38],27.6 µM
same,GI50,[39],3760 nM
same,TGI,[39],14.8 µM
same,GI50,[40],28.4 µM
same,TGI,[40],68.2 µM
same,GI50,[41],3.74 µM
same,TGI,[41],20.4 µM
same,GI50,[42],22.9 µM
same,TGI,[42],51.9 µM
same,GI50,[43],1.07 µM
same,TGI,[43],34.9 µM
same,GI50,[44],7.04 µM
same,TGI,[44],37 µM
same,GI50,[45],568 nM
same,TGI,[45],2.54 µM
same,GI50,[46],2650 nM
same,TGI,[46],6.01 µM
same,GI50,[47],5.05 µM
same,TGI,[47],71.7 µM
same,GI50,[48],1470 nM
same,TGI,[48],4.27 µM
same,GI50,[49],12.9 µM
same,TGI,[49],27.2 µM
same,GI50,[50],951 nM
same,TGI,[50],2.84 µM
same,GI50,[51],29.5 µM
same,TGI,[51],> 100 µM
same,GI50,[52],1260 nM
same,TGI,[52],3.06 µM
same,GI50,[53],19.5 µM
same,TGI,[53],34.9 µM
same,GI50,[54],2520 nM
same,TGI,[54],5.14 µM
same,GI50,[55],24.1 µM
same,TGI,[55],53.2 µM
COC(=O)CCC1=C(CC(=O)OC)C(C)=N/C1=C\c1[nH]c(-c2ccc[nH]2)cc1OC,GI50,[1],3340 nM
same,TGI,[1],13 µM
same,GI50,[2],12.3 µM
same,TGI,[2],25 µM
same,GI50,[3],5.63 µM
same,TGI,[3],20.6 µM
same,GI50,[4],3.09 µM
same,TGI,[4],11.5 µM
same,GI50,[5],1.81 µM
same,TGI,[5],3.97 µM
same,GI50,[6],4.06 µM
same,TGI,[6],16.9 µM
same,GI50,[7],11.1 µM
same,TGI,[7],24.9 µM
same,GI50,[8],3.44 µM
same,TGI,[8],14.7 µM
same,GI50,[9],2040 nM
same,TGI,[9],15.2 µM
same,GI50,[10],0.557 µM
same,TGI,[10],10.3 µM
same,GI50,[56],13.3 µM
same,TGI,[56],28.4 µM
same,GI50,[11],3.29 µM
same,TGI,[11],19.6 µM
same,GI50,[12],1360 nM
same,TGI,[12],11.5 µM
same,GI50,[13],2.73 µM
same,TGI,[13],10.2 µM
same,GI50,[14],3630 nM
same,TGI,[14],18 µM
same,GI50,[15],2.37 µM
same,TGI,[15],11.6 µM
same,GI50,[16],1680 nM
same,TGI,[16],29.8 µM
same,GI50,[17],2380 nM
same,TGI,[17],13.5 µM
same,GI50,[18],3.9 µM
same,TGI,[18],18.8 µM
same,GI50,[19],2150 nM
same,TGI,[19],9.56 µM
same,GI50,[20],5.81 µM
same,TGI,[20],23.3 µM
same,GI50,[21],4.9 µM
same,TGI,[21],19.1 µM
same,GI50,[22],4.21 µM
same,TGI,[22],28.6 µM
same,GI50,[23],2700 nM
same,TGI,[23],12.5 µM
same,GI50,[57],788 nM
same,TGI,[57],3.11 µM
same,GI50,[24],2670 nM
same,TGI,[24],15 µM
same,GI50,[25],6.49 µM
same,TGI,[25],21.6 µM
same,GI50,[26],4.47 µM
same,TGI,[26],17 µM
same,GI50,[27],8.56 µM
same,TGI,[27],24.2 µM
same,GI50,[28],2.92 µM
same,TGI,[28],11.4 µM
same,GI50,[29],4.51 µM
same,TGI,[29],16.2 µM
same,GI50,[30],3460 nM
same,TGI,[30],15.6 µM
same,GI50,[31],5.32 µM
same,TGI,[31],22.6 µM
same,GI50,[32],2480 nM
same,TGI,[32],12.6 µM
same,GI50,[34],3.25 µM
same,TGI,[34],15.1 µM
same,GI50,[35],5.87 µM
same,TGI,[35],22.6 µM
same,GI50,[36],1.83 µM
same,TGI,[36],5.9 µM
same,GI50,[37],4.42 µM
same,TGI,[37],21 µM
same,GI50,[38],6.8 µM
same,TGI,[38],23.3 µM
same,GI50,[39],1440 nM
same,TGI,[39],3.23 µM
same,GI50,[41],5.61 µM
same,TGI,[41],25.3 µM
same,GI50,[42],11.6 µM
same,TGI,[42],31.1 µM
same,GI50,[43],5.95 µM
same,TGI,[43],21.3 µM
same,GI50,[44],4.09 µM
same,TGI,[44],18.7 µM
same,GI50,[45],4260 nM
same,TGI,[45],15.6 µM
same,GI50,[46],3070 nM
same,TGI,[46],11.6 µM
same,GI50,[47],3.58 µM
same,TGI,[47],16.6 µM
same,GI50,[48],1710 nM
same,TGI,[48],7.7 µM
same,GI50,[49],10.6 µM
same,TGI,[49],23.9 µM
same,GI50,[50],2310 nM
same,TGI,[50],20.1 µM
same,GI50,[58],2430 nM
same,TGI,[58],10.2 µM
same,GI50,[51],3.72 µM
same,TGI,[51],13.7 µM
same,GI50,[52],2560 nM
same,TGI,[52],14.3 µM
same,GI50,[53],3.79 µM
same,TGI,[53],16.3 µM
same,GI50,[54],1440 nM
same,TGI,[54],4.91 µM
same,GI50,[55],3.55 µM
same,TGI,[55],16.3 µM
